Assay results published in US8415469B2, “Compounds and methods for kinase modulation, and indications therefor” (Plexxikon Inc., priority 2005, dated 2013).

Legend:
Format in all cases: biochemical
Abl = target: T1, Abl (Homo sapiens, UniProt P00519); assay: AlphaScreen kinase assay, Abl; settings: read-out: activity toward kinase Abl, IC50
T1 construct: P1121. pET-SPEC BI-PTP Abl G227-V515-X; His6 (N); made in house; host or cells: E. coli (PTP1B co-expressed)
T1 sequence (P00519 with tags, fused parts or gaps): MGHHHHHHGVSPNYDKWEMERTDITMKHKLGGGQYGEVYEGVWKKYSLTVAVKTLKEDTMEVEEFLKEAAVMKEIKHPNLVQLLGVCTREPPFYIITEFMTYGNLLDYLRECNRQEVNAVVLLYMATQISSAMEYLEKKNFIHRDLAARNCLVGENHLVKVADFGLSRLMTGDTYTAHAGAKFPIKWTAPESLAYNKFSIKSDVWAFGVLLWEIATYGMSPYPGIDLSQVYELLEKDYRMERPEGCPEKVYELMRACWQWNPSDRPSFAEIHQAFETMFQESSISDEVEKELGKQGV
In short: (§1)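 Emission from acceptor beads reports phosphorylated biotin-peptide bridging antibody-coated acceptor and streptavidin donor beads; loss of signal reflects kinase inhibition. Eight-point, threefold dilution series prepared from 20 mM DMSO stocks.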

Kdr = target: T2, Kdr (Homo sapiens, UniProt P35968); assay: Z'-Lyte FRET kinase assay (Invitrogen), Kdr; settings: read-out: IC50, activity toward kinase Kdr
T2 construct: purchased Invitrogen (assay run by Invitrogen)

Flt4 = target: T3, Flt4 (Homo sapiens, UniProt P35916); assay: AlphaScreen kinase assay, Flt4; settings: read-out: IC50, activity toward kinase Flt4
T3 construct: purchased ProQinase GmbH (Freiburg, Germany)
Excerpt: AlphaScreen assay was used to screen additional kinases. The assay is similarly dependent on the phosphorylation of a peptide substrate. In this assay, an antibody that recognizes phosphorylated substrate is bound to an acceptor bead. The peptide substrate is attached to biotin, which binds to a donor head that contains streptavidin. Thus phosphorylated substrate is bound by antibody and streptavidin, bringing the donor and acceptor heads into close proximity when kinase is not inhibited. The donor produces singlet oxygen which results in emission from the acceptor when they are in close proximity. Conversely, when kinase is inhibited, the donor and acceptor beads are not associated and the emission from the acceptor is reduced.
AlphaScreen assays were done using compounds dissolved in DMSO to a concentration of 20 mM. The compounds were diluted accordingly to the desired final concentrations in each sample well, using 1:3 serial dilution for a total of 8 concentration points.

Ret = target: T4, Ret (Homo sapiens, UniProt P07949); assay: AlphaScreen kinase assay, Ret; settings: read-out: IC50, activity toward kinase Ret
T4 construct: P1378.pET-SF BI-PTP RET H661-R1012 HIS; made in house
T4 sequence (P07949 with tags, fused parts or gaps): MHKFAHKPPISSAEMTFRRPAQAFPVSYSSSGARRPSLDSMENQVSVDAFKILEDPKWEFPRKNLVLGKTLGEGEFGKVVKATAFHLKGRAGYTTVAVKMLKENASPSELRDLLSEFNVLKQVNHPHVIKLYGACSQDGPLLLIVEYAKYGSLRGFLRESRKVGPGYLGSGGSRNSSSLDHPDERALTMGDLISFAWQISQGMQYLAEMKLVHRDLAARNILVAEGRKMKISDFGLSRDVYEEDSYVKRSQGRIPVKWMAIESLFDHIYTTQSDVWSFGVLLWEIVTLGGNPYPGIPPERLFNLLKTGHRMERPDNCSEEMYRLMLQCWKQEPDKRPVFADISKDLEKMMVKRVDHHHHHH

Kit = target: T5, Kit (Homo sapiens, UniProt P10721); assay: AlphaScreen kinase assay, Kit; settings: read-out: IC50, activity toward kinase Kit
T5 construct: P1332.N6 BI PTP KIT M552-K948-X COD; His6 (N); made in house; host or cells: E. coli (PTP1B co-expressed)

B-Raf V600E = target: T6, B-Raf V600E (Homo sapiens, UniProt P15056, V600E); assay: AlphaScreen kinase assay, B-Raf V600E; settings: read-out: IC50, activity toward kinase B-Raf V600E
T6 construct: P4254. pFastBacBD-CDC37 BRAF D437-K722-X, V600E; His6 with pFastBac HT leader (TEV site) (N); made in house; host or cells: Sf9 (baculovirus; chaperone CDC37 co-expressed)

Flt1 = target: T7, Flt1 (Homo sapiens, UniProt P17948); assay: AlphaScreen kinase assay, Flt1; settings: read-out: IC50, activity toward kinase Flt1
T7 construct: P1826.pETN6 BI-PTP FLT1 M799-D1165-X WT; His6 (N); made in house; host or cells: E. coli (PTP1B co-expressed)
T7 sequence (P17948 with tags, fused parts or gaps): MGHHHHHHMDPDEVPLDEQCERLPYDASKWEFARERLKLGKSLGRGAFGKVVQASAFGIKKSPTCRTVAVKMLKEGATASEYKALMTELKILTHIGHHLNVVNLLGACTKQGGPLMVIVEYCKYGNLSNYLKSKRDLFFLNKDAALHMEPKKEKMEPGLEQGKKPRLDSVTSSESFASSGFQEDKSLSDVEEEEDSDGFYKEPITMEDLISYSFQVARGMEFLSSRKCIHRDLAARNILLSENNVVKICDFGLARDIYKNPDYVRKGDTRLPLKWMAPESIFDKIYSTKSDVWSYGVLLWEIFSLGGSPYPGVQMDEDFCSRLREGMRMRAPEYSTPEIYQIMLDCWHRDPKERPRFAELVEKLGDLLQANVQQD

FGFR1 = target: T8, FGFR1 (Homo sapiens, UniProt P11362, C488A/C584S); assay: AlphaScreen kinase assay, FGFR1; settings: read-out: IC50, activity toward kinase FGFR
T8 construct: P1351.pET N6 BI-PTP FGFR A458-E765-X C488A, C584S; made in house; host or cells: E. coli (PTP1B co-expressed)

Src = target: T9, Src (Homo sapiens, UniProt P12931); assay: AlphaScreen kinase assay, Src; settings: read-out: IC50, activity toward kinase Src
T9 construct: P1144. pET-N6 BI-PTP SRC V86-L536-X; made in house

Fak = target: T10, Fak (Homo sapiens, UniProt Q05397); assay: AlphaScreen kinase assay, Fak; settings: read-out: IC50, activity toward kinase Fak
T10 construct: P1358.pFastBacHtb FAK S411-Q686-X; His6 with pFastBacHTb leader (TEV site) (N); made in house; host or cells: Sf9 (baculovirus)

Jnk3 = target: T11, Jnk3 (Homo sapiens, UniProt P53779); assay: AlphaScreen kinase assay, Jnk3; settings: read-out: IC50, activity toward kinase Jnk3
T11 construct: purchased Upstate Biotechnology

Zap70 = target: T12, Zap70 (Homo sapiens, UniProt P43403); assay: AlphaScreen kinase assay, Zap70; settings: read-out: IC50, activity toward kinase Zap70
T12 construct: P1868.pFastBac1 ZAP70 D327-G606 HIS, WT; His7 (HHHHHHH) (C); made in house
T12 sequence (P43403 with tags, fused parts or gaps): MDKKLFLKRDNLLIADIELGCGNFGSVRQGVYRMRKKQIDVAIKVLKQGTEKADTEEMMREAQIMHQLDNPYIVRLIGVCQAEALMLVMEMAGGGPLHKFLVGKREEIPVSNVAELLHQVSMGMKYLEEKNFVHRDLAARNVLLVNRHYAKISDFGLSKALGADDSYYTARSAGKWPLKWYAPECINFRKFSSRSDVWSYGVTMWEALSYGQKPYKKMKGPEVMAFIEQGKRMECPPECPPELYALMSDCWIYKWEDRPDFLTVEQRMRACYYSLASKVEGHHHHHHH
In short: as §1

MAP4K4 = MAP4K4 (Homo sapiens, UniProt O95819); assay: AlphaScreen kinase assay, MAP4K4; settings: read-out: IC50, activity toward kinase MAP4K4
Method: AlphaScreen assays were done using compounds dissolved in DMSO to a concentration of 20 mM. The compounds were diluted accordingly to the desired final concentrations in each sample well, using 1:3 serial dilution for a total of 8 concentration points. Plates were prepared such that each kinase reaction is 20 μl in 1× kinase buffer, 5% DMSO and 10 μM ATP. After incubation of the kinase reaction for 1 hour at room temperature, 5 μl of donor beads in stop buffer (50 mM EDTA in 1× kinase buffer) was added, the sample was mixed and incubated for 20 minutes at room temperature before adding 5 μl of acceptor beads in stop buffer. The samples were incubated for 60 minutes at room temperature and the signal per well was read on AlphaQuest reader.

c-Raf-1 = target: T13, c-Raf-1 (Homo sapiens, UniProt P04049); assay: AlphaScreen kinase assay, c-Raf-1; settings: read-out: IC50, activity toward kinase c-Raf-1
T13 construct: purchased Upstate Biotechnology

Fms = target: T14, Fms (Homo sapiens, UniProt P07333); assay: AlphaScreen kinase assay, Fms; settings: read-out: IC50, activity toward kinase Fms
T14 construct: purchased Upstate Biotechnology

Jnk1 = target: T15, Jnk1 (Homo sapiens, UniProt P45983); assay: AlphaScreen kinase assay, Jnk1; settings: read-out: IC50, activity toward kinase Jnk1
T15 construct: purchased Upstate Biotechnology

Measured: IC50

T5 sequence (P10721 with tags, fused parts or gaps): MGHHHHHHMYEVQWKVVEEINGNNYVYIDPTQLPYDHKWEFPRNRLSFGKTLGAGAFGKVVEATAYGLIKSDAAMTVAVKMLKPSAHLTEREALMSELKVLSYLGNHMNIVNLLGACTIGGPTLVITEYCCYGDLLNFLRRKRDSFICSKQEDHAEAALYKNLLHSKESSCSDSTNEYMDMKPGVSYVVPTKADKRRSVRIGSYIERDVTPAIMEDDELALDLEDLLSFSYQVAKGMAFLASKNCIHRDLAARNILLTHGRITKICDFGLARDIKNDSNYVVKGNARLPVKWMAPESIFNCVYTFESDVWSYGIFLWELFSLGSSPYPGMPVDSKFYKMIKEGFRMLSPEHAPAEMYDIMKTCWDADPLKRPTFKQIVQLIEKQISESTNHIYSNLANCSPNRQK
T2 sequence (P35968 20-1356): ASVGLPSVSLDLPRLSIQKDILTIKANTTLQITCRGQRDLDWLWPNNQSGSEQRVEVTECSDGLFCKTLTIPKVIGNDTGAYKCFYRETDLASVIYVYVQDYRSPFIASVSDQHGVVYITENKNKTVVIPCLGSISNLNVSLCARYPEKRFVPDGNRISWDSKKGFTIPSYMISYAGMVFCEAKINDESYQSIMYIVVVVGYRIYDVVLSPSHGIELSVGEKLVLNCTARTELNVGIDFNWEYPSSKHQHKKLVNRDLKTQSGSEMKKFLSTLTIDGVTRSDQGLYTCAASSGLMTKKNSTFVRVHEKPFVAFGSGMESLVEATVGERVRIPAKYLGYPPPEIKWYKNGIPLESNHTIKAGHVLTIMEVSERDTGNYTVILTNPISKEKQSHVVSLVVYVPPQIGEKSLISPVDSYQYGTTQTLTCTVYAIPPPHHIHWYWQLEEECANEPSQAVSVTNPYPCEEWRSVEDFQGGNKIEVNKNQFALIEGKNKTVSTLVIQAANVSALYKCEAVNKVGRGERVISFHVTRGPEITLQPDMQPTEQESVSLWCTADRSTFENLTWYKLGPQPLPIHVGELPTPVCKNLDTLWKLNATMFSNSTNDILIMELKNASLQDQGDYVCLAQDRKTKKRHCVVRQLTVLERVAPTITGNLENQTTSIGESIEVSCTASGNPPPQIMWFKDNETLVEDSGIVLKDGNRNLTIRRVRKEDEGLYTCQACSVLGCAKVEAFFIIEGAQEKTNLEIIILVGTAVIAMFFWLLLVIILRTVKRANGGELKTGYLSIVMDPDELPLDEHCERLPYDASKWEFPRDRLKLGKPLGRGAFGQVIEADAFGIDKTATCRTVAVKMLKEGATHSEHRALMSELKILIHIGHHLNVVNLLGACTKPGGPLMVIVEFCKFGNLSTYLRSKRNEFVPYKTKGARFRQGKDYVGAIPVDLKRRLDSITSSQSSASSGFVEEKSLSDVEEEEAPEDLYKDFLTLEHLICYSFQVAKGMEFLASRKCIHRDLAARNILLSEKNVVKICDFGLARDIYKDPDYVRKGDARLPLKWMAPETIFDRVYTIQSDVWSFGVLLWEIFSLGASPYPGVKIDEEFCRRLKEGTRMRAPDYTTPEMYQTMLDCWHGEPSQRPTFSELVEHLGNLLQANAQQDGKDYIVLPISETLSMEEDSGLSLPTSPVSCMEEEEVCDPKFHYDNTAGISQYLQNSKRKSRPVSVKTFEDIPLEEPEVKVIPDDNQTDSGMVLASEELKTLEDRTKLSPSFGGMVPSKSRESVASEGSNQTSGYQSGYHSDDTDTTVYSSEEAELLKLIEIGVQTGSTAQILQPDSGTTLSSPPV
T9 sequence (P12931 with tags, fused parts or gaps): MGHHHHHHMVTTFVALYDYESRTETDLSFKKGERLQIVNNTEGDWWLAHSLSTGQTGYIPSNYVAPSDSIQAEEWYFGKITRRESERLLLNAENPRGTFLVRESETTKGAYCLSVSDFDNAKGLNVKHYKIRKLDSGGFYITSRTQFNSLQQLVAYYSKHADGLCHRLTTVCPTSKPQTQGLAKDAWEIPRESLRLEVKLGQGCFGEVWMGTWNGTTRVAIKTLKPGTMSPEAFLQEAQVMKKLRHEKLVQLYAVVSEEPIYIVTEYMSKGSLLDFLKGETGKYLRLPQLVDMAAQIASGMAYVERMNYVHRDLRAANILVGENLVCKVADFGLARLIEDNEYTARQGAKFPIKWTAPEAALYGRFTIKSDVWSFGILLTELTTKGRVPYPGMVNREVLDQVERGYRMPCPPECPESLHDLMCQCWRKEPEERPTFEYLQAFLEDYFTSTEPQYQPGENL
T8 sequence (P11362 458-765 C488A/C584S): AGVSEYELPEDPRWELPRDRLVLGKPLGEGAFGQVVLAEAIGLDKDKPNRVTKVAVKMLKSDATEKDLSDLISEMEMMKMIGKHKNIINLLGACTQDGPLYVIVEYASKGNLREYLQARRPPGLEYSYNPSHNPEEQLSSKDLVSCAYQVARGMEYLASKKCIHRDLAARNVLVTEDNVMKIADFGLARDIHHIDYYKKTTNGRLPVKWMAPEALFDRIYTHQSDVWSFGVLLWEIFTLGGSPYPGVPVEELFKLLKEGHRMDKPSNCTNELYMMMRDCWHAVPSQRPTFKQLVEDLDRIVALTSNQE
T6 sequence (P15056 with tags, fused parts or gaps V600E): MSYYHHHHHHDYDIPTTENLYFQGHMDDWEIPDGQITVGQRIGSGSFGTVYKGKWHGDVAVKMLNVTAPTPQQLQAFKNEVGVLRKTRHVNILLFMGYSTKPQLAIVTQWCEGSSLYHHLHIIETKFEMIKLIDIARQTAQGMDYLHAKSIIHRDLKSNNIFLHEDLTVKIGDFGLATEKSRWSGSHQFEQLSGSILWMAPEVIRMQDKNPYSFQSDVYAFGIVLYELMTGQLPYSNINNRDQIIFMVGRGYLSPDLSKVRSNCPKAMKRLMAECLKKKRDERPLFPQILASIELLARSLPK
T3 sequence (P35916 25-1363): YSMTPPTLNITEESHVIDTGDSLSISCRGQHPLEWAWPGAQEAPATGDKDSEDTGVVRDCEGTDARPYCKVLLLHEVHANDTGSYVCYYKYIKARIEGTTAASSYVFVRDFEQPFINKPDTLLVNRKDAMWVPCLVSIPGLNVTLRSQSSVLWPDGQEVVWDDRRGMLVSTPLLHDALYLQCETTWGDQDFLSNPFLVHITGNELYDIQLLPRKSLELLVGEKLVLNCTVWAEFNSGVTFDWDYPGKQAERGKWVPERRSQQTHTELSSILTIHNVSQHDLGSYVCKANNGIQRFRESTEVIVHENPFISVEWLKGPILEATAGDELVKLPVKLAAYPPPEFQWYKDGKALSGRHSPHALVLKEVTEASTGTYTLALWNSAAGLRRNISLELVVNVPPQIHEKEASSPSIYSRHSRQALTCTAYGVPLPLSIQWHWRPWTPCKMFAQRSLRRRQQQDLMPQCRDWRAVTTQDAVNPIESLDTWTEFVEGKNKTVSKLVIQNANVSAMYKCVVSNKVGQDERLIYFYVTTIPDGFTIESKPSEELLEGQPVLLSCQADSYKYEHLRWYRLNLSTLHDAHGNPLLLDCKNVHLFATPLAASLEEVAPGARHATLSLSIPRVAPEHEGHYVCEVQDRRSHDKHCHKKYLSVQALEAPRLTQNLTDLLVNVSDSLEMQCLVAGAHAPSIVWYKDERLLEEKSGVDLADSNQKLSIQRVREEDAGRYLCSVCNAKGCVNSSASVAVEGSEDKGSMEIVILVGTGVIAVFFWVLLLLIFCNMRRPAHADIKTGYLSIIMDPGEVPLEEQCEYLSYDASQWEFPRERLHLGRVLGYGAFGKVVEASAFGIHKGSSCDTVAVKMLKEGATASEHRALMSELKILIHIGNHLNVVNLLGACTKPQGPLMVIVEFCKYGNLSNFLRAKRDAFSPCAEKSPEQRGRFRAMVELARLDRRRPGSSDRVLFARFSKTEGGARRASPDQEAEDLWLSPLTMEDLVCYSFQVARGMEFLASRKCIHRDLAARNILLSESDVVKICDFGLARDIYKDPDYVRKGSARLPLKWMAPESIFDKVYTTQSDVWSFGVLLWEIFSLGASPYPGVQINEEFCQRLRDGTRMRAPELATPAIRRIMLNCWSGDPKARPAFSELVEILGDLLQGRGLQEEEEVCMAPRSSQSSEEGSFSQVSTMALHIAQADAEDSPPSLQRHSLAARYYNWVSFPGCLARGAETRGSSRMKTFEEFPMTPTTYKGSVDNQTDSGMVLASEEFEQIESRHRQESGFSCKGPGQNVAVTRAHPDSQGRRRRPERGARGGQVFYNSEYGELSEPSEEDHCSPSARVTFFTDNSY
T11 sequence (P53779 whole entry): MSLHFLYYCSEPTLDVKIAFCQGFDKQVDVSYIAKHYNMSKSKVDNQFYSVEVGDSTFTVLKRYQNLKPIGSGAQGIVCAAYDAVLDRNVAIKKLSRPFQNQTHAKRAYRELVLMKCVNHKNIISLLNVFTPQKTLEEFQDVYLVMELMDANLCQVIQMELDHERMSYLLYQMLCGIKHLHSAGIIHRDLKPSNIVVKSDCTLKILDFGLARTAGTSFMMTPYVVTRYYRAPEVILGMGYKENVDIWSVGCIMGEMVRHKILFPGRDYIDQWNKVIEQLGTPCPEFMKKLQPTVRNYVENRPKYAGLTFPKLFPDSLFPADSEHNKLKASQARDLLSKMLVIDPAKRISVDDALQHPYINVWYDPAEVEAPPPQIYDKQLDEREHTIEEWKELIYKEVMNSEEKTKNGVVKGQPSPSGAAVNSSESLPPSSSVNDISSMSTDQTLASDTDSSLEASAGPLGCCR
T10 sequence (Q05397 411-686): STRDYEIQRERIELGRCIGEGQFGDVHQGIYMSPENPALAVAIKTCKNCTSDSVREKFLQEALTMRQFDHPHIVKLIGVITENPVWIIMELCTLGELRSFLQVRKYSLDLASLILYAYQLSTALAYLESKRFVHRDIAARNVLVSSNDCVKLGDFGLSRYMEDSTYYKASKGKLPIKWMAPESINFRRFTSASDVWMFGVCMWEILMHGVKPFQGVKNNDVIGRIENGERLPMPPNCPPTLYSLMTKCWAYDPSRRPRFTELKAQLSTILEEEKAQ

O=C(c1cccc(Cl)c1Cl)c1c[nH]c2ncc(-c3cccnc3)cc12 [Compound P-0751]
≤ 10 µM: Abl | Kdr | Flt4 | Ret | Kit | B-Raf V600E | Flt1 | FGFR1

O=C(c1cccc(F)c1)c1c[nH]c2nccc(-c3cc(F)cc(F)c3)c12 [Compound P-0316]
≤ 10 µM: Abl | Kdr | Src | Flt4 | Ret | Kit | FGFR1

Cc1cc(C(=O)c2c[nH]c3ncc(-c4cccc(C(N)=O)c4)cc23)n(C)n1 [Compound P-0224]
≤ 10 µM: Abl | Kdr | Flt4 | Ret | Kit | Flt1 | Fak

Nc1cccc(-c2cnc3[nH]cc(C(=O)c4ccc5nsnc5c4)c3c2)c1 [Compound P-0703]
≤ 10 µM: Kdr | Jnk3 | Flt4 | Ret | Kit | Zap70

O=C(c1cccc(F)c1F)c1c[nH]c2nccc(-c3cc(F)cc(F)c3)c12 [Compound P-0205]
≤ 10 µM: Flt4 | Ret | Kit | B-Raf V600E | FGFR1 | Zap70

O=C(c1ccc2ccccc2c1)c1c[nH]c2ncccc12 [Compound P-0495]
≤ 10 µM: Kdr | MAP4K4 | Flt4 | Ret | Kit | FGFR1 | Zap70

Nc1cccc(-c2cnc3[nH]cc(C(=O)c4ccc(Cl)cc4)c3c2)c1 [Compound P-0738]
≤ 10 µM: Abl | Kdr | Jnk3 | Flt4 | Ret | Kit

COc1ccc(F)c(C(=O)c2c[nH]c3ncc(-c4cccs4)cc23)c1 [Compound P-0656]
not listed: Kdr | Src | Fak | Zap70 | MAP4K4 | Jnk1
≤ 10 µM: all other assays above

Cc1cc(C(=O)c2c[nH]c3ncc(-c4ccc(C(N)=O)cc4)cc23)n(C)n1 [Compound P-0762]
≤ 10 µM: Abl | Kdr | Flt4 | Ret | Kit | B-Raf V600E

COc1cccc(C(=O)C2C=Nc3nccc(-c4cc(F)cc(F)c4)c32)c1 (stereo not drawn) [Compound P-0453]
≤ 10 µM: Abl | Src | Flt4 | Ret | Kit | B-Raf V600E | FGFR1

NC(=O)c1ccc(-c2cnc3[nH]cc(C(=O)c4ccccc4F)c3c2)cc1 [Compound P-0691]
not listed: Src | Zap70 | MAP4K4 | c-Raf-1 | Fms
≤ 10 µM: all other assays above

NC(=O)c1ccc(-c2cnc3[nH]cc(C(=O)c4cccc(O)c4)c3c2)cc1 [Compound P-0645]
≤ 10 µM: Abl | Kdr | Src | Jnk3 | Flt4 | Ret | Kit | B-Raf V600E | FGFR1
